Literature values as cited in patent US20030031651A1, “Methods and reagents for cell transplantation” (priority 2001, published 2003).

Test system: BMSCs
Details: BMSCs exposed to 5-azacytidine

SMILES: Nc1ncn([C@@H]2O[C@H](CO)[C@@H](O)[C@H]2O)c(=O)n1 [5-azacytidine]
- c-abl and interleukin-6 transcripts: rapidly upregulate
- expression of collagen I: downregulating
